Results on 19 molecules are retold here after patent US20090233795A1, “Fungicidal Mixtres Based On 3-Monosubstituted N-Bipenyl-Pyrazolecarboxamides” (BASF Akitengesellschaft, priority 2005, published 2009).

In one data set the test system is Pyrenophora teres. As to the kind of experiment: Activity against net blotch of barley, 1 day protective application. In kind it is in vivo, Pyrenophora [syn. Drechslera] teres. To be noted: sprayed 24 hours before inoculation, rated after 6 days.
A further data set has as its system Botrytis cinerea. As to the kind of experiment: Activity against gray mold on bell pepper leaves, 1 day protective application. It counts as in vivo. To be noted: sprayed 1 day before inoculation, rated after 5 days.
For data set [1], the system named is Puccinia recondita. The experiment in a line: Curative activity against brown rust of wheat. To be noted: sprayed the day after inoculation, 7 days. In kind it is in vivo.
The test system of data set [2] is Erysiphe [syn. Blumeria] graminis forma specialis. tritici. As to the kind of experiment: Activity against mildew of wheat. To be noted: 1 mg/l, sprayed 24 hours before inoculation, rated after 7 days. In kind it is in vivo.
The next data set concerns Pyricularia oryzae. In kind it is cell-based. To be noted: microtiter plate, 405 nm, day 7.
Data set [3] has as its system Puccinia recondita. The experiment in a line: Protective activity against brown rust of wheat. It counts as in vivo. To be noted: 16 mg/l, sprayed the day before inoculation.
In the next data set the test system is Septoria tritici. As to the kind of experiment: Activity against the speckled leaf blotch pathogen in the microtiter test. It counts as cell-based. To be noted: microtiter plate, 405 nm, day 7.

Read-outs that look alike come from different tables or passages of the source.

The melting point is the temperature, or range, at which the solid turns liquid.

`Fc1ccc([C@]2(Cn3cncn3)O[C@H]2c2ccccc2Cl)cc1` (racemic) [epoxiconazole, (2RS,3SR)-1-[3-(2-chlorophenyl)-2,3-epoxy-2-(4-fluorophenyl)propyl]-1H-1,2,4-triazole]: the “Observed activity (% infection)” value in the data set on Pyrenophora teres (1 mg/l) stood at 0%.

Consider `CC1CCN(c2c(-c3c(F)cc(F)cc3F)c(Cl)nc3ncnn23)CC1` [5-chloro-7-(4-methylpiperidin-1-yl)-6-(2,4,6-trifluorophenyl)-[1,2,4]triazolo[1,5-a]pyrimidine, reference compound], for which the “Observed activity (% infection)” value turned out to be 40% with Botrytis cinerea (4 mg/l) and 0% in the data set on Puccinia recondita [1] (1 mg/l).

Regarding `Cn1cc(C(=O)Nc2ccccc2-c2cccc(Cl)c2)c(C(F)(F)F)n1` [No. I.1, N-(3′-chlorobiphenyl-2-yl)-1-methyl-3-trifluoromethyl-1H-pyrazole-4-carboxamide], the melting point lay within 92 to 94 °C. In the data set on Botrytis cinerea (1 mg/l), the “Observed activity (% infection)” value is on record as 0%. The “Observed activity (% infection)” value in data set [2] worked out at 0%. Also, the “Observed activity (% infection)” value with Pyrenophora teres (4 mg/l) is given as 26%. The “Observed activity (% infection)” value in the data set with Pyricularia oryzae (4 mg/l) came out at 0%.

Regarding `Cn1cc(C(=O)Nc2ccccc2-c2cccc(C(F)(F)F)c2)c(C(F)(F)F)n1` [No. I.4, N-(3′-trifluoromethylbiphenyl-2-yl)-1-methyl-3-trifluoromethyl-1H-pyrazole-4-carboxamide], the melting point lay in the range of 132 to 134 °C. Further, the “Observed activity (% infection)” value with Puccinia recondita [3] is on record as 0%. Further, the “Observed activity (% infection)” value with Septoria tritici (0.25 mg/l) worked out at 20%.

Turning to `Cn1cc(C(=O)Nc2ccccc2-c2cccc(C#N)c2)c(C(F)(F)F)n1` [No. I.5, 1-methyl-3-trifluoromethyl-N-(ortho-(3-cyanophenyl)phenyl)pyrazole-4-carboxamide], the melting point is 76 to 78 °C.

As to `Cn1cc(C(=O)Nc2ccccc2-c2cccc(C(F)(F)F)c2)c(C(F)F)n1` [No. I.9, N-(3′-trifluoromethylbiphenyl-2-yl)-1-methyl-3-difluoromethyl-1H-pyrazole-4-carboxamide], the melting point fell in the range of 124 to 125 °C. The “Observed activity (% infection)” value in data set [2] is reported as 0%. In addition, the “Observed activity (% infection)” value with Puccinia recondita [1] (0.25 mg/l) is listed as 11%.

In turn, `Cc1nn(C)cc1C(=O)Nc1ccccc1-c1cccc(Cl)c1` [No. I.10, N-(3′-chlorobiphenyl-2-yl)-1,3-dimethyl-1H-pyrazole-4-carboxamide] had a melting point of 104 to 106 °C.

Turning to `Cn1cc(C(=O)Nc2ccccc2-c2cccc(Cl)c2)c(CF)n1` [No. I.11, N-(3′-chlorobiphenyl-2-yl)-1-methyl-3-fluoromethyl-1H-pyrazole-4-carboxamide], the melting point lay within 96 to 99 °C.

`Cn1cc(C(=O)Nc2ccccc2-c2cccc(Cl)c2)c(C(F)F)n1` [No. I.12, N-(3′-chlorobiphenyl-2-yl)-1-methyl-3-difluoromethyl-1H-pyrazole-4-carboxamide]: the melting point lay in the range of 110 to 112 °C.

Molecule `Cn1cc(C(=O)Nc2ccccc2-c2cccc(F)c2)c(CF)n1` [No. I.13, N-(3′-fluorobiphenyl-2-yl)-1-methyl-3-fluoromethyl-1H-pyrazole-4-carboxamide] came in with a melting point of 138 to 141 °C.

`Cn1cc(C(=O)Nc2ccccc2-c2cccc(F)c2)c(C(F)F)n1` [No. I.14, N-(3′-fluorobiphenyl-2-yl)-1-methyl-3-difluoromethyl-1H-pyrazole-4-carboxamide] yielded a melting point of 130 to 135 °C.

`Cc1nn(C)c(F)c1C(=O)Nc1ccccc1-c1cccc(C#N)c1` [No. I.15, N-(3′-cyanobiphenyl-2-yl)-1,3-dimethyl-5-fluoro-1H-pyrazole-4-carboxamide] came in with a melting point of 137 to 138 °C.

With `Cc1nn(C)c(F)c1C(=O)Nc1ccccc1-c1cccc([N+](=O)[O-])c1` [No. I.16, N-(3′-nitrobiphenyl-2-yl)-1,3-dimethyl-5-fluoro-1H-pyrazole-4-carboxamide], the melting point lay in the range of 137 to 139 °C.

The molecule `Cc1nn(C)c(F)c1C(=O)Nc1ccccc1-c1cccc(C(F)(F)F)c1` [No. I.17, N-(3′-trifluoromethylbiphenyl-2-yl)-1,3-dimethyl-5-fluoro-1H-pyrazole-4-carboxamide] came in with a melting point of 113 to 114 °C.

In the case of `COc1ccc(C(=CC(=O)N2CCOCC2)c2ccc(Cl)cc2)cc1OC` [dimethomorph, 3-(4-chlorophenyl)-3-(3,4-dimethoxyphenyl)-1-morpholin-4-yl-propenone], the “Observed activity (% infection)” value with Puccinia recondita [1] (1 mg/l) and in the data set with Pyrenophora teres (16 mg/l) was 0% throughout.

Regarding `COc1cc(C)c(C(=O)c2c(OC)ccc(Br)c2C)c(OC)c1OC` [metrafenone, 3′-bromo-2,3,4,6′-tetramethoxy-2′,6-dimethylbenzophenone], the “Observed activity (% infection)” value with Puccinia recondita [1] (1 mg/l) and in the data set with Pyrenophora teres (16 mg/l) was 0% each time.

Take `COC(=O)N(OC)c1ccccc1COc1ccn(-c2ccc(Cl)cc2)n1` [pyraclostrobin, methyl N-{2-[1-(4-chlorophenyl)-1H-pyrazol-3-yloxymethyl]phenyl}(N-methoxy)carbamate, reference compound]: in data set [2], the “Observed activity (% infection)” value is recorded as 40%.

With `CC1(C)CC/C(=C\c2ccc(Cl)cc2)C1(O)Cn1cncn1` (stereo not shown) [triticonazole, (5E)-5-[(4-chlorophenyl)methylene]-2,2-dimethyl-1-(1H-1,2,4-triazol-1-ylmethyl)cyclopentanol, reference compound], in data set [2], the “Observed activity (% infection)” value was 40%.

For the molecule “zinc ammoniate ethylenebis(dithiocarbamate) [metiram, reference compound]”, the “Observed activity (% infection)” value is 1% with Septoria tritici (1 mg/l) and 52% in the data set with Pyricularia oryzae (16 mg/l).
